Values quoted from earlier work, collected in patent US20090062369A1, “USE OF SECRETORY PHOSPHOLIPASE A2 (SPLA2) INHIBITORS TO DECREASE SPLA2 LEVELS” (priority 2007, published 2009).

Tested on: sPLA2
Conditions: cited from earlier work

CCc1c(C(=O)C(N)=O)c2c(OCC(=O)O)cccc2n1Cc1ccccc1 [A-001, ((3-(2-Amino-1,2-dioxoethyl)-2-ethyl-1-(phenylmethyl)-1H-indol-4-yl)oxy)acetic acid]
mode of sPLA2 inhibition: competitively inhibits sPLA2
